In article PMC7144376, “Antiviral Effects of Novel 2-Benzoxyl-Phenylpyridine Derivatives” (Molecules, 2020):

System: CVB3 protein
Assay: CVB3 protein by indirect immunofluorescence
Type: cell-based, Coxsackievirus B3
Conditions: 160 μM, Hep-2 cells
Description: Figure 5 Effect of W13 on CVB3 replication in Hep-2 cells. Hep-2 cells infected with 100 TCID50 CVB3 were incubated in the absence or presence of 160 µM W13 and harvested at the indicated times post-infection. (a) Progeny virus yields were determined. (b) Viral RNA levels were measured by analysis of total RNA. GAPDH was amplified and the resulting data was used for normalization. Values represent the means ± SDs of three independent experiments. * p < 0.05; ** p < 0.01, compared with the virus control group. (c) CVB3 protein levels were determined by indirect immunofluorescence, using the mouse anti-coxsackie virus B3 monoclonal antibody, MAB948, and an alexa-fluor-488-conjugated affiniPure goat anti-mouse IgG (H + L), after incubation with W13 for 24 h. Nuclei were stained with DAPI and green foci indicate the presence of CVB3 protein.
The influence of W13 on CVB3 replication was also determined at the translational level. […] Then, intracellular viral protein was detected by indirect immunofluorescence analysis after incubation for 8, 24, and 36 h.
Hep-2 cells (1 × 10^5) were seeded in 24-well plates and incubated overnight. […] After the plates had been washed three times with 0.1% Tween-20 in PBS, they were incubated with the appropriate Alexa-Fluor-488-labeled secondary antibody (Invitrogen) and fluorescence evaluated using an OLYMPUS IX73 microscope (Tokyo, Japan).

Cc1ccc(OC(=O)C(C)(C)C)c(-c2ccccn2)c1 [W13]
viral protein synthesis (immunofluorescence foci): suppressed
